A short description of series [1]: Half life in Beagle dog at 20 mg/kg, po by LC-MS/MS analysis. It counts as ADME, organism-based, Canis lupus familiaris. The conditions noted are these: in vivo.
The nature of series [2]: Tmax in Beagle dog at 20 mg/kg, po by LC-MS/MS analysis. It counts as ADME, organism-based, Canis lupus familiaris. Particulars: in vivo.
Series [3] is described as follows: Cmax in Beagle dog at 20 mg/kg, po by LC-MS/MS analysis. It counts as ADME, organism-based, Canis lupus familiaris. On the set-up: route oral, dose 20 mg/kg. The conditions noted are these: in vivo.
The nature of series [4]: AUC (0 to t) in Beagle dog at 20 mg/kg, po by LC-MS/MS analysis. It counts as ADME, organism-based, Canis lupus familiaris. More on the design: dose 20 mg/kg. The conditions noted are these: in vivo.
Series [5] can be described thus: AUC (0 to infinity) in Beagle dog at 20 mg/kg, po by LC-MS/MS analysis. Format: ADME, organism-based, Canis lupus familiaris. More on the design: route oral, time infinity, dose 20 mg/kg. Particulars: in vivo.
The subject of the next series is MDA-MB-231. Nature of the series: Antimetastatic activity against CM-Dil labeled human MDA-MB-231 cells xenografted in Zebrafish AB assessed as reduction in tail metastasis at 2.5 ug/ml measured after 5 days by fluorescence microscopic analysis. The conditions noted are these: dose 2.5 µg/ml, time 5.0 day. Format: functional, cell-based. (A xenograft is tissue or cells of one species grown in another, often human tumour cells in immunodeficient mice.)

The target of a further series is Histone deacetylase 1 (Homo sapiens, UniProt Q13547). Nature of the series: Inhibition of recombinant human His-tagged HDAC1 expressed in insect cells using Ac-Leu-Gly-Lys(Ac)-AMC as substrate measured after 30 mins by fluorescence assay.
Chain of Histone deacetylase 1 (Q13547 whole entry): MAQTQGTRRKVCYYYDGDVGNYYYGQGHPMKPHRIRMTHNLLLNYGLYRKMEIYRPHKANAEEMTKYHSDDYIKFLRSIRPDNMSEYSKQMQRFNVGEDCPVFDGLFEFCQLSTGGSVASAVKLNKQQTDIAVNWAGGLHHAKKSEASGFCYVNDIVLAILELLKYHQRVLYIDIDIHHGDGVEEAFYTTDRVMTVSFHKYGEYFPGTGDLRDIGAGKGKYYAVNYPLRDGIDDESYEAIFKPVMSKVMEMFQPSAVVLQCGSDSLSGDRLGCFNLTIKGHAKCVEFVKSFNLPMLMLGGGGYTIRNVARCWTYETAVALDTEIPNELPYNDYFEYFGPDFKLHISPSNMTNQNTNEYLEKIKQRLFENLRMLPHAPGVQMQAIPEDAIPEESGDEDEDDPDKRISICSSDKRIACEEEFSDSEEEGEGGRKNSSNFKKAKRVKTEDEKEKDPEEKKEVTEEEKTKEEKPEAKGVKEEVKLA
The next series concerns the target Histone deacetylase 2 (Homo sapiens, UniProt Q92769). The experiment in a line: Inhibition of human full-length C-terminal FLAG-tagged HDAC2 expressed in baculovirus infected Sf9 insect cells using Ac-Leu-Gly-Lys(Ac)-AMC as substrate measured after 30 mins by fluorescence assay. It counts as cell-based.
The target of series [6] is Histone deacetylase 3/NCoR1 (Homo sapiens, UniProt O15379). Nature of the series: Inhibition of recombinant human GST-fused HDAC3/NCOR1 (397 to 503 residues) expressed in baculovirus infected insect cells using Ac-Leu-Gly-Lys(Ac)-AMC as substrate measured after 30 mins by fluorescence assay.
Chain of Histone deacetylase 3/NCoR1 (O15379 whole entry, the tested form may be a part): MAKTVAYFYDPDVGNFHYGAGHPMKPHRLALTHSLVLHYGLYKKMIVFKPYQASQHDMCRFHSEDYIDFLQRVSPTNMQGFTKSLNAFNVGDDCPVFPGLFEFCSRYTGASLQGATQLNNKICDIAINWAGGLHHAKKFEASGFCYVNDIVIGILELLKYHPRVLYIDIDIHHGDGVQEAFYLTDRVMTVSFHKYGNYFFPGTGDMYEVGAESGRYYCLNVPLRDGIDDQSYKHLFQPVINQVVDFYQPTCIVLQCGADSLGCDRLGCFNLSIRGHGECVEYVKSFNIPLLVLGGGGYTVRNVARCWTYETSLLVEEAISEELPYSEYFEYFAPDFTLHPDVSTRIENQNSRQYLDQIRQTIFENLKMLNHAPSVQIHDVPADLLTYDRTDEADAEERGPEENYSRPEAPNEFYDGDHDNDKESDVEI
Chain of Histone deacetylase 3/NCoR1 (O75376 whole entry, further chain, the tested form may be a part): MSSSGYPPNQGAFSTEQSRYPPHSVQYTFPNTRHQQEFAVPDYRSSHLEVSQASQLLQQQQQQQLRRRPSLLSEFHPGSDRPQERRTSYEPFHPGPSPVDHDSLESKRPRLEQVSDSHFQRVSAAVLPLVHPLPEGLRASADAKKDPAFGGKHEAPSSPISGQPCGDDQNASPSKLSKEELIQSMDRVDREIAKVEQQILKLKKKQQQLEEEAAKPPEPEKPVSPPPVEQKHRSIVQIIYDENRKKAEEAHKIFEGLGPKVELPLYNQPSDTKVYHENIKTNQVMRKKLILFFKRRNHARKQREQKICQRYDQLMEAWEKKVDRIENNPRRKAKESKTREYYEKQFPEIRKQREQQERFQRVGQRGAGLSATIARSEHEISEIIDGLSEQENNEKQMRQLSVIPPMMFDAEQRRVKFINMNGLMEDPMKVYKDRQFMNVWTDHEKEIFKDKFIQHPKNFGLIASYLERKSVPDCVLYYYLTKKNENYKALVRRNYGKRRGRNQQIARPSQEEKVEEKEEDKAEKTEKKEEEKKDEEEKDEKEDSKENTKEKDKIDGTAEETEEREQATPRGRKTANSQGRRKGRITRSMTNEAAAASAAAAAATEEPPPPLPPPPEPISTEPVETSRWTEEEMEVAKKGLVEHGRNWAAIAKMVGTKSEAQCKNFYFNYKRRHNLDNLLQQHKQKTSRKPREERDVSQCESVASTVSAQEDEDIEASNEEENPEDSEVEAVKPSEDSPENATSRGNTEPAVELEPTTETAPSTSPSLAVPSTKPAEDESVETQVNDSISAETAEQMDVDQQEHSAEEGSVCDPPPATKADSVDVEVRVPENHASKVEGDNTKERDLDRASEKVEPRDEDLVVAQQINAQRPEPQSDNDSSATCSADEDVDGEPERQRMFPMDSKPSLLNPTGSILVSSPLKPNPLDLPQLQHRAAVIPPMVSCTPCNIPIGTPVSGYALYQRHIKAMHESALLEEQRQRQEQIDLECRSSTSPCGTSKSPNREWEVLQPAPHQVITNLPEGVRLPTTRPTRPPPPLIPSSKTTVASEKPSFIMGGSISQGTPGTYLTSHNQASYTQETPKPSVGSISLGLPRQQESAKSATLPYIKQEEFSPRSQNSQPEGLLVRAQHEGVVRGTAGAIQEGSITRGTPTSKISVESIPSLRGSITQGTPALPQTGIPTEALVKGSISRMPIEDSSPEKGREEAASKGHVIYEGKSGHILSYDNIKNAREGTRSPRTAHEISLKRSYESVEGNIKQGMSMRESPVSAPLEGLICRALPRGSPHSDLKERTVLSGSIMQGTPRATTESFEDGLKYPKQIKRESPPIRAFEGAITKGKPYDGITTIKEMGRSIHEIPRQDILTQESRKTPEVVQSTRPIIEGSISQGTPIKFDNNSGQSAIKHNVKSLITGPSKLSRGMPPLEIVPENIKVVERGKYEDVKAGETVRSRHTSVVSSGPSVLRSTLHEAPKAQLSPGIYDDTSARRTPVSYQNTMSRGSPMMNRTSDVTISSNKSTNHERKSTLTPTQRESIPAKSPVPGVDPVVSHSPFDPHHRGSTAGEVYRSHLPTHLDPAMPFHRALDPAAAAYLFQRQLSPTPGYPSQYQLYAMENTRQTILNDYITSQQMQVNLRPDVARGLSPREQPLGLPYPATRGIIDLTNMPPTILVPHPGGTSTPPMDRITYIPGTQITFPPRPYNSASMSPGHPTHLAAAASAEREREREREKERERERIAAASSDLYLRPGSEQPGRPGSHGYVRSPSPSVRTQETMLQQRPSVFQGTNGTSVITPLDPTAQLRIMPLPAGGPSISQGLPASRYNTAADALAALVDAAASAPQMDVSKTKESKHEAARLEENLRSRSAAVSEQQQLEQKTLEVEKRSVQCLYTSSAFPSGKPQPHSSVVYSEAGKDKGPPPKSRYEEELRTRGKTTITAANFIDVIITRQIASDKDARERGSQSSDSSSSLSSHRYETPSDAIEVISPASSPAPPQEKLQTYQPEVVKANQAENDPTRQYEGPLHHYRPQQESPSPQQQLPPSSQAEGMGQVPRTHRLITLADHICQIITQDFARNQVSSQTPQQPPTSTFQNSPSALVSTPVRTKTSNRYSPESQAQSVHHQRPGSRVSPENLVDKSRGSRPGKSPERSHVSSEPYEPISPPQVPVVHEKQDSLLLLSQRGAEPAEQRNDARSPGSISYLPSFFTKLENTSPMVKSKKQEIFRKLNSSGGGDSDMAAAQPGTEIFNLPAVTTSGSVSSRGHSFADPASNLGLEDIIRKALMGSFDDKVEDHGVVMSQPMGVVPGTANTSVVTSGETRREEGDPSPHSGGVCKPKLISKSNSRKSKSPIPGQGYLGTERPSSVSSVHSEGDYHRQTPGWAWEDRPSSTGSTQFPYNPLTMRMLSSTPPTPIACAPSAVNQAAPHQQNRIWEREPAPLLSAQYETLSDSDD
In a further series the target is T1, Histone deacetylase 8 (Homo sapiens, UniProt Q9BY41).
T1 sequence (Q9BY41 whole entry): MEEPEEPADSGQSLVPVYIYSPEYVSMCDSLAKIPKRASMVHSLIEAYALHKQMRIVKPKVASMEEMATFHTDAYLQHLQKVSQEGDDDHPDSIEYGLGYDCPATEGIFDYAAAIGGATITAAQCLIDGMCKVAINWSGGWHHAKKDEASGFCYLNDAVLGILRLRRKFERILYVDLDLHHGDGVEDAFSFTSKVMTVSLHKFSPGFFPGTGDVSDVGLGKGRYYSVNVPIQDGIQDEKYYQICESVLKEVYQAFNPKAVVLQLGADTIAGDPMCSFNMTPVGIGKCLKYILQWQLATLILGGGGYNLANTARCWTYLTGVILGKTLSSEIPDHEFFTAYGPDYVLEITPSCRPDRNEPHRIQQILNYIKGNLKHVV
The experiment in a line: Inhibition of recombinant human full-length C-terminal His-tagged HDAC8 expressed in baculovirus infected Sf9 insect cells using Ac-Leu-Gly-Lys(Tfa)-AMC as substrate measured after 30 mins by fluorescence assay.

In the next series the target is Histone deacetylase 4 (Homo sapiens, UniProt P56524). The experiment in a line: Inhibition of recombinant human N-terminal GST-tagged HDAC4 (627 to end residues) expressed in baculovirus infected Sf9 insect cells using AcLeu-Gly-Lys(Tfa)-AMC as substrate measured after 30 mins by fluorescence assay.
A further series concerns the target Histone deacetylase 5 (Homo sapiens, UniProt Q9UQL6). Nature of the series: Inhibition of recombinant human full-length N-terminal GST-tagged HDAC5 expressed in baculovirus infected Sf9 insect cells using AcLeu-Gly-Lys(Tfa)-AMC as substrate measured after 30 mins by fluorescence assay.
The target in the next series is T2, Histone deacetylase 7 (Homo sapiens, UniProt Q8WUI4).
T2 sequence (Q8WUI4 whole entry): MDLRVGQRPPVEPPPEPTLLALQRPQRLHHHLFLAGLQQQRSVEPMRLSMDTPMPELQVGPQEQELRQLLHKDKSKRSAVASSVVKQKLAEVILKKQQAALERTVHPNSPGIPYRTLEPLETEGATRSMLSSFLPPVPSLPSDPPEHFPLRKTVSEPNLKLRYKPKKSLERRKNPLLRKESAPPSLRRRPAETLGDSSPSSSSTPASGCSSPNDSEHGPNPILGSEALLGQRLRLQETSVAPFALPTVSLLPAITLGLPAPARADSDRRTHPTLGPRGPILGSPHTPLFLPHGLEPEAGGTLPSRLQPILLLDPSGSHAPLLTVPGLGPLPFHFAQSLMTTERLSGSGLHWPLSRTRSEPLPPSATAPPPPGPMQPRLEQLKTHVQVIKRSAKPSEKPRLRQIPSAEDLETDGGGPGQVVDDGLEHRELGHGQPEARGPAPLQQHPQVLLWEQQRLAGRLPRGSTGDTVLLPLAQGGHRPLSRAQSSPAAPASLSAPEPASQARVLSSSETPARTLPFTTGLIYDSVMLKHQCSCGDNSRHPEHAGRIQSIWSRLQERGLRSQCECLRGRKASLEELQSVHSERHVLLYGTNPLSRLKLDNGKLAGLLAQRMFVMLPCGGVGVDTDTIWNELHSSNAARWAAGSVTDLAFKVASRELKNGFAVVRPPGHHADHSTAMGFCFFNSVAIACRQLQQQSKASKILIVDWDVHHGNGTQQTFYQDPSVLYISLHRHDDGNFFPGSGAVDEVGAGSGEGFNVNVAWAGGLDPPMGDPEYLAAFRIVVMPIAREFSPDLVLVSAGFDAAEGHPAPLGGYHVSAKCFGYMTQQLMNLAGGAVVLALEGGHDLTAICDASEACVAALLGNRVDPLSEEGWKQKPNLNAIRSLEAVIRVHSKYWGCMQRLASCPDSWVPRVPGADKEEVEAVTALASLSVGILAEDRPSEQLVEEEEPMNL
The experiment in a line: Inhibition of HDAC7 (unknown origin) using AcLeu-Gly-Lys(Tfa)-AMC as substrate measured after 30 mins by fluorescence assay.

The next series deals with Histone deacetylase 9 (Homo sapiens, UniProt Q9UKV0). Nature of the series: Inhibition of recombinant human full-length N-terminal GST-tagged HDAC9 (1 to 1069 residues) expressed in wheat germ expression system using Ac-Leu-Gly-Lys(Tfa)-AMC as substrate measured after 30 mins by fluorescence assay.
Chain of Histone deacetylase 9 (Q9UKV0 whole entry, the tested form may be a part): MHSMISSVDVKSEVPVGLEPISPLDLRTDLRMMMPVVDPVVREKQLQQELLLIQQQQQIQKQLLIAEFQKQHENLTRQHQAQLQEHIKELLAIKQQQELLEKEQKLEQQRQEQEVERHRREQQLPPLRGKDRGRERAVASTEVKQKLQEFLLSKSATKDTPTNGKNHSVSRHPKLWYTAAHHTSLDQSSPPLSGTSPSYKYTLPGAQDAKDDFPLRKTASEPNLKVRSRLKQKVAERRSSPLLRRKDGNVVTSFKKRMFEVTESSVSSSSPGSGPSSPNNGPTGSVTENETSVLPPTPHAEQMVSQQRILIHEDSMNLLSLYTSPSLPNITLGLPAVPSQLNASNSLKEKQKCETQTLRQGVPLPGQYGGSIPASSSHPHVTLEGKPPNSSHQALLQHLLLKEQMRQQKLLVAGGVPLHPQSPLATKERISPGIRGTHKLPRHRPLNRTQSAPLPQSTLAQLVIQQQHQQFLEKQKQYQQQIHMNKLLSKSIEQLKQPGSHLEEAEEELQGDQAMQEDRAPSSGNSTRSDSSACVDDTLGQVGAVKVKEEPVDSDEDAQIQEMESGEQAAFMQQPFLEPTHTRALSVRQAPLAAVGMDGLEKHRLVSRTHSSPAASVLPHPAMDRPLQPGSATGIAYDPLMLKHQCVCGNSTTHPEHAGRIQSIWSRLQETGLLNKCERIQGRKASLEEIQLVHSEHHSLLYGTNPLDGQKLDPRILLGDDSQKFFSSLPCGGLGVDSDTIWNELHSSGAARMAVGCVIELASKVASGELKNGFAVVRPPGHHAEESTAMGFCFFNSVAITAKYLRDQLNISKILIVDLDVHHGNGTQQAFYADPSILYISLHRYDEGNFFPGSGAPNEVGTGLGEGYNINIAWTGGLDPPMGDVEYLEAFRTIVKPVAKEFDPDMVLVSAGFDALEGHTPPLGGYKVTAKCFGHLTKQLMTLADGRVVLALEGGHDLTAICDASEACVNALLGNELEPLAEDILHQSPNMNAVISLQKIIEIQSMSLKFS
In another series the target is T3, Histone deacetylase 11 (Homo sapiens, UniProt Q96DB2).
T3 sequence (Q96DB2 whole entry): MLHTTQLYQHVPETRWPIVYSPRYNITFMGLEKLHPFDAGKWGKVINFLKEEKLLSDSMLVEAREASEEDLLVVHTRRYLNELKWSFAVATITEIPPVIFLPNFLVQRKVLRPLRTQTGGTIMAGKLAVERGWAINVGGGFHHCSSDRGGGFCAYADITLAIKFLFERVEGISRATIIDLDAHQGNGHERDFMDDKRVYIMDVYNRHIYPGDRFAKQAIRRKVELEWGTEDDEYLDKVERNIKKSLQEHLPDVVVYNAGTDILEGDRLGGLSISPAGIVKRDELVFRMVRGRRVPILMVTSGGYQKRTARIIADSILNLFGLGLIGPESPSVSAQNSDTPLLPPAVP
The experiment in a line: Inhibition of recombinant human N-terminal His-tagged HDAC11 expressed in baculovirus infected Sf9 insect cells using Ac-Arg-His-Lys(Ac)-Lys(Ac)-AMC as substrate measured after 30 mins by fluorescence assay.

We go through 2 compounds from ChEMBL document CHEMBL4765420, “Design, synthesis and biological evaluation of novel HDAC inhibitors with improved pharmacokinetic profile in breast cancer” (Eur J Med Chem, 2020).

Calls of active or inactive are those of the source. The calls are words filed in the database; no cut-off is given here.

Chain of Histone deacetylase 2 (Q92769 whole entry, the tested form may be a part): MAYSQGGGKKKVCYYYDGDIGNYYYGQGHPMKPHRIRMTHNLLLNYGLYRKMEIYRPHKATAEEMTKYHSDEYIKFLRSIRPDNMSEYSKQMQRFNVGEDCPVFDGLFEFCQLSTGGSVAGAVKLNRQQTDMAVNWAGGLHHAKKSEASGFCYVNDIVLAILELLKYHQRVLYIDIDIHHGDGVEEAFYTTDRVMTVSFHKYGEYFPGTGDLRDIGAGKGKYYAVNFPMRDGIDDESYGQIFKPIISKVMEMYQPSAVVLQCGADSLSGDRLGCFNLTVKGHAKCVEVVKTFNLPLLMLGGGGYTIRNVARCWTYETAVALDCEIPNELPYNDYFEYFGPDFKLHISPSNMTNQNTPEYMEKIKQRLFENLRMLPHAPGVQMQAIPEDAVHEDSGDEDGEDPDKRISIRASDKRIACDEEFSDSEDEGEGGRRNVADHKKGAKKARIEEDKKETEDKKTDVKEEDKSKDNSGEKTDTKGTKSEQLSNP

Consider `O=C(CCCCCCC(=O)Nc1ccccc1)NO` [VORINOSTAT], for which, in [1], the t1/2 turned out to be 19.2 min. Also, the Tmax in series [2] came to 9 min. The same compound yielded a Cmax in series [3] of 118.93 ng/mL. Further, the AUC(0-t) in series [4] is 965 ng·h/mL. This compound also registered an AUC in series [5] of 968.32 ng·h/mL. Also, the result with MDA-MB-231 was Active.
For the compound `COc1cc(OC)c2c(N3CCN(C)CC3)nc(-c3cc(C)c(OCCCCCC(=O)NO)c(C)c3)nc2c1`, the IC50 at Histone deacetylase 1 is 0.0869 µM; against Histone deacetylase 2, 0.0973 µM; in series [6], 0.0792 µM; at Histone deacetylase 8, 0.378 µM; at Histone deacetylase 4, > 1 µM; on Histone deacetylase 5, > 1 µM. Further, the IC50 against Histone deacetylase 7, at Histone deacetylase 9 and on Histone deacetylase 11 was > 1 µM throughout. Also, the t1/2 in [1] is 74.4 min. For the same compound, the Tmax in [2] worked out at 47.4 min. In series [3], this compound gave a Cmax of 120.36 ng/mL. This compound also returned an AUC(0-t) in series [4] of 1280 ng·h/mL. In addition, the AUC in series [5] is 1289.4 ng·h/mL.

As a reminder, the Tmax is the time from dosing to the highest level. As a reminder, the Cmax is the peak of the concentration-time curve. A word on the AUC(0-t): it is exposure summed from dosing to a finite time, without extrapolation to infinity. A low value points to low exposure. A word on the AUC: it is concentration integrated over time. Read a low AUC as less exposure. Broadly, the IC50 is the point on the concentration scale where inhibition reaches its midpoint.
